Test results from PubChem BioAssay (NCI).
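GI50 marks 50% less growth. TGI: concentration producing complete growth inhibition.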

Columns and labels:
Experiment in all cases: DTP human tumour cell line panel, 384-well format
[1] = system: OVCAR-4 ovarian
[2] = system: NCI-H322M lung
[3] = system: HCC-2998 colon
[4] = system: HOP-62 NSCLC
[5] = system: DU-145 prostate
[6] = system: U251 glioblastoma
[7] = system: HOP-92 NSCLC
[8] = system: ACHN renal
[9] = system: SK-MEL-28 melanoma
[10] = system: CAKI-1 renal
[11] = system: SNB-75 CNS
[12] = system: PC-3 prostate
[13] = system: SK-MEL-2 melanoma
[14] = system: HCT-116 colon
[15] = system: NCI-H23 lung
[16] = system: UACC-62 melanoma
[17] = system: K-562 leukemia
[18] = system: RPMI-8226 leukemia
[19] = system: A498 renal
[20] = system: MOLT-4 leukemia
[21] = system: NCI/ADR-RES ovarian
[22] = system: SF-539 CNS
[23] = system: MDA-MB-468 breast
[24] = system: NCI-H460 NSCLC
[25] = system: NCI-H226 lung
[26] = system: BT-549 breast
[27] = system: SW-620 colon
[28] = system: M14 melanoma
[29] = system: OVCAR-8 ovarian
[30] = system: A549 NSCLC
[31] = system: SR leukemia
[32] = system: MDA-MB-435 melanoma
[33] = system: CCRF-CEM leukemia
[34] = system: TK-10 renal
[35] = system: SK-OV-3 ovarian
[36] = system: MDA-MB-231 breast
[37] = system: COLO 205 colon
[38] = system: T-47D breast
[39] = system: OVCAR-3 ovarian
[40] = system: HS 578T breast
[41] = system: KM12 colon
[42] = system: SK-MEL-5 melanoma
[43] = system: NCI-H522 lung
[44] = system: UACC-257 melanoma
[45] = system: HT29 colon
[46] = system: OVCAR-5 ovarian
[47] = system: MCF7 breast

For `CC(C)(O)C1CCC(Nc2ccc3ncc(-c4cccc(C(F)(F)F)c4)n3n2)CC1` (centres undefined), the GI50 [1] was 0.994 µM, the TGI [1] was 4.82 µM and the GI50 [2] was 1.73 µM. It also gave a TGI [2] of 3.93 µM, a GI50 [3] of 1.22 µM and a TGI [3] of 2.75 µM. The GI50 [4] was 1.51 µM, the TGI [4] was 3.6 µM and the GI50 [5] was 2.83 µM. For the same molecule, the TGI [5] was 12.3 µM, the GI50 [6] was 1.32 µM and the TGI [6] was 2.83 µM. The GI50 [7] was 0.67 µM, the TGI [7] was 3.13 µM and the GI50 [8] was 1.63 µM. It also gave a TGI [8] of 5.01 µM, a GI50 [9] of 1.37 µM and a TGI [9] of 2.69 µM. For the same molecule, the GI50 [10] was 1.49 µM, the TGI [10] was 3.39 µM and the GI50 [11] was 1.45 µM. The TGI [11] was 4.14 µM, the GI50 [12] was 1.37 µM and the TGI [12] was 3.32 µM. The GI50 [13] was 1.32 µM, the TGI [13] was 2.62 µM and the GI50 [14] was 1.7 µM. It also gave a TGI [14] of 3.37 µM, a GI50 [15] of 1.46 µM and a TGI [15] of 3.3 µM. It also gave a GI50 [16] of 1.5 µM, a TGI [16] of 2.84 µM and a GI50 [17] of 0.891 µM. It also gave a TGI [17] of 2.21 µM, a GI50 [18] of 0.19 µM and a TGI [18] of 0.365 µM. The GI50 [19] was 1.16 µM, the TGI [19] was 2.59 µM and the GI50 [20] was 0.559 µM. For the same molecule, the TGI [20] was 1.86 µM, the GI50 [21] was 1.38 µM and the TGI [21] was 3.3 µM. The GI50 [22] was 1.02 µM, the TGI [22] was 2.33 µM and the GI50 [23] was 1.09 µM. The TGI [23] was 2.64 µM, the GI50 [24] was 1.13 µM and the TGI [24] was 2.53 µM. It also gave a GI50 [25] of 1 µM, a TGI [25] of 2.66 µM and a GI50 [26] of 1.45 µM. For the same molecule, the TGI [26] was 3.88 µM, the GI50 [27] was 1.81 µM and the TGI [27] was 4.15 µM. The GI50 [28] was 0.798 µM, the TGI [28] was 2.22 µM and the GI50 [29] was 1.77 µM. The TGI [29] was 4.71 µM, the GI50 [30] was 2.1 µM and the TGI [30] was 7.64 µM. It also gave a GI50 [31] of 0.588 µM, a TGI [31] of 1.69 µM and a GI50 [32] of 1.53 µM. It also gave a TGI [32] of 4.17 µM, a GI50 [33] of 0.367 µM and a TGI [33] of 1.56 µM. It also gave a GI50 [34] of 1.39 µM, a TGI [34] of 6.84 µM and a GI50 [35] of 1.12 µM. It also gave a TGI [35] of 2.89 µM, a GI50 [36] of 1.13 µM and a TGI [36] of 3.42 µM. It also gave a GI50 [37] of 2.47 µM, a TGI [37] of 8.7 µM and a GI50 [38] of 0.54 µM. The TGI [38] was 2.12 µM, the GI50 [39] was 1.95 µM and the TGI [39] was 6.19 µM. It also gave a GI50 [40] of 0.364 µM, a TGI [40] of 1.66 µM and a GI50 [41] of 0.051 µM. It also gave a TGI [41] of 2.13 µM, a GI50 [42] of 0.948 µM and a TGI [42] of 2.32 µM. For the same molecule, the GI50 [43] was 1.03 µM, the TGI [43] was 2.56 µM and the GI50 [44] was 1.55 µM. The TGI [44] was 3.08 µM, the GI50 [45] was 1.31 µM and the TGI [45] was 3.05 µM. It also gave a GI50 [46] of 1.82 µM, a TGI [46] of 6.51 µM and a GI50 [47] of 1.49 µM. The TGI [47] was 3.12 µM.
